Source: US8754121B2, “Use of deoxyelephantopin (DET) and analogues thereof for treatment of melanoma” (priority 2010, dated 2014)
Like-named read-outs stand apart in the source and are kept apart here.

Experiments:
[1] = test system: B16 melanoma cells; assay: MTT cell viability assay, B16 cell proliferation; assay type: cell-based, murine; conditions: 24 h, 37° C., read-out: IC50, inhibition of B16 cell proliferation
Experimental: Human melanocytes and murine B16 melanoma cells obtained from the American Type Culture Collection (ATCC®, MD) were grown overnight in a 10-mm petri-dish at 37° C. in MEM and RPMI medium 1640, respectively, supplemented with 10% heat-inactivated FBS, 100 units/mL penicillin, and 100 μg/mL streptomycin, in a humidified 5% CO2 incubator. Cell viability was measured by MTT-based colorimetric assay. The formula to calculate viable cell (%) is as follows: Cell viability (%)=(sample OD550/control OD550)×100% Synergism of DET and Cisplatin

[2] = test system: B16 cells; assay: Time-lapse cell motility assay; assay type: cell-based, murine; conditions: time-lapse videomicroscopy over 24 h, 3 μM DET, 40 μM CP, 3 μM DET plus 40 μM CP; for migration velocity of B16 cells: vehicle control 0.35±0.09; for migration distance of B16 cells: vehicle control 488.2±147.1
Experimental: Cell motility was assessed by time-lapse videomicroscopy. B16 cells were seeded in 6 cm dish for 3 h and maintained at constant temperature (37° C.) and 5% CO2 chamber throughout the experimental period. Cells were observed under an inverted microscope (Zeiss Axiovert 200M), and phase-contrast snap photographs (one frame every 30 min) were digitally recorded for 24 h. Cell paths were generated from centroid positions, and cell velocities of migration were analyzed using the tracking object of the Metamorph software (Molecular Device).

[3] = test system: B16 melanoma cells; assay: Migration and invasion assay (trans-well); assay type: cell-based, murine; conditions: 24 h; for B16 melanoma cell invasion: Matrigel
Experimental: B16 cells (1×10^5 cells) were cultured in culture-inserts of boyden chamber (ibidi, Germany) for 12 h. The culture-inserts were removed and added DET or cisplatin alone or in combination for 24 h. B16 cells were added into a 24-transwell permeable plate (8.0 μm polycarbonate membrane, 6.5 mm insert; Corning Incorporated, Corning, N.Y.) coated with Matrigel basement membrane matrix. The bottom wells received 50 μL medium having the same concentration of serum as the top well, either 1% or 10% FBS. Cells were removed from the upper and lower sides of the filter after 24 h. The ratio of the counts obtained from the bottom versus total counts from both sides was used to determine migration and invasiveness. The invading cells remaining in the well were counted in six randomly chosen low-power fields at 100× original magnification by inverted fluorescence microscopy.

[4] = test system: B16 melanoma cells; assay: Cell cycle analysis by flow cytometry (sub-G1 fraction); assay type: cell-based, murine; conditions: 24 h, data not shown
Experimental: Both adherent and floating cells were collected, washed with PBS and fixed with 1 mL of ice-cold 70% ethanol overnight at 4° C.

[5] = test system: lung metastasis of B16 melanoma (B16-COX-2/Luc cells); assay: Inhibition of lung metastasis of B16 cells in syngeneic mice, in vivo bioluminescence imaging; set-up: species or system C57BL/6J mice; conditions: for mean bioluminescence intensity compared to tumor group (100%): Day 30; for remained bioluminescence intensity relative to tumor control group (100%): Day 21
Experimental: Stable B16 melanoma cell clone carrying COX-2 promoter driven-luciferase (pGL-COX-2/Luc) reporter gene plasmid was established. […] The B16-COX-2/Luc stable cell line was used in the mouse lung metastasis experiments.
After 10 minutes of incubation with luciferin, each mouse was placed in a right lateral decubitus position and a digital grayscale animal image was acquired using an IVIS spectrum (Xenogen Corp.). The acquisition and overlay of a pseudocolor image was taken, which represents the spatial distribution of detected photons emerging from active luciferase within the animals. Signal intensity was quantified using an IVIS Spectrum system (Xenogen Corp.) as the sum of all detected photons per second on Day 0, 7, 14, 18, 21, 23, 26 and 30 of treatment.

[6] = test system: metastatic B16 melanoma tumors; assay: Survival of mice carrying metastatic B16 melanoma; assay type: in vivo, C57BL/6J mice; conditions: tumor control 33 days
Experimental: All data were expressed as means±SD. For the survival data, the log-rank test was used to determine differences among tumor control, drug and compound treated groups. For other experiments, differences between treatments were determined by ANOVA. A P<0.05 is considered statistically significant.

[7] = Body weight of B16 tumor-bearing mice; assay type: in vivo, C57BL/6J mice; conditions: groups CP2 (cisplatin 2 mg/kg BW) and DET10+CP1, i.p. every two days; P<0.05
Experimental: Female C57BL/6J mice (National Laboratory Animal Center, Tainan, Taiwan) were given a standard laboratory diet and distilled water ad libitum and kept on a 12-h light/dark cycle at 22±2° C. In total, 63 mice were randomly divided and assigned into 7 groups. Female C57BL/6J mice received an intravenous (i.v) injection with 1×10^5 B16 cells in 200 μL PBS through the tail vein at Day 0. On Day 1, mice were divided into tumor group, CP2 group, DET10 group, DET10+CP1 group, and CP2→DET10 group. The mice were treated intraperitoneally (i.p.) every two days with 2 mg/kg body weight (BW) cisplatin (CP2), 10 mg/kg BW DET (DET10), DET10 mixed with 1 mg/kg BW cisplatin (DET10+CP1), and with CP2 five times and DET10 five times, then CP2 and DET10 taking turns every two days till the end of the experiments (CP2→DET10 group), respectively. The Pre-DET10 group mice were treated i.p with DET (10 mg/kg BW) every two days two weeks before (Day 14) tumor cells inoculation on Day 0, and continuously treated with DET10 till the end of the experiment. The tumor control mice were treated with vehicle DMSO. The mice in the sham control group were injected i.p. with 20 μL DMSO on Day 1 every 2 days throughout the experimental period. Tumor volumes were measured every 3 days and the body weight recorded once a week.

[8] = Primary metabolome of kidney tissues by UPLC/ESI-Q-TOF MS; assay type: in vivo, C57BL/6J mice
Experimental: Primary metabolome in the kidney tissues of test mice with various treatments were analyzed using UPLC-QTOF MS. Kidney samples (150 mg) were homogenized with 600 μL methanol and 127.5 μL distilled water. The homogenates were vigorously mixed with 1.2 mL chloroform:H2O solution (1:1, v/v) and then put at −20° C. for 20 min. After centrifugation at 13000×g for 10 min at 4° C., the supernatant (water layer) was collected, dried in a vacuum, and then reconstituted in 100 μL of 50% methanol for analysis.
LC-MS was performed with a LC system (ACQUITY UPLC, Waters, Millford, Mass.) coupled to a hybrid Q-TOF mass spectrometer (Synapt HDMS, Waters, Manchester, U.K.). The sample was separated online with a reverse-phase column (HSS T3 C18, 1.8 μm, 2.1 mm×150 mm, Waters, Milford, Mass.) which was kept in a column oven at 40° C. The mobile phases for positive ion mode consisted of 0.1% formic acid in 2% ACN (buffer A) and 0.1% formic acid in 100% ACN (buffer B). The mobile phases for negative ion mode consisted of pure H2O (buffer A) and pure 100% AcCN (buffer B).
The mass spectrometer equipped with lock electrospray ionization probe was operated in both positive and negative (ESI) modes. The electrospray voltage was set at 3 kV for positive ion mode and −2.5 kV for negative ion mode, and the cone voltage was 40V. The cone and desolvation gas flow were 50 and 700 L/h, respectively. A lock mass calibration of sulfadimethoxin (0.5 mg/L) in water/MeOH (50:50, v/v) was introduce by the HPLC pump (LC-10ATVP, Shimadzu, Japan) and split the 5 μL/min to the lockspray probe. The acquisition method was set to one full MS scan (50-990 m/z) with 0.2 sec scan time in centroid data mode.
The UPLC-MS data were analyzed using MarkerLynx XS version 4.1 SCN639 (Waters, Millford, Mass.). In this application, the peaks in the 0.5-4 min LC-MS data were detected and the noise reduced in both LC and MS domains. The extracted peak information was also processed to remove the peak-to-peak noise, deisotope and filter the MS peak with the intensity lower than 50 counts. A list of the intensities of the processed peaks for each of the LC-MS data was generated using retention time (RT) and m/z data pairs as the identifier of each peak. The processed data for each sample were combined and aligned for each of the RT-m/z pair to generate the final data table. The ion intensities for each peak were then normalized within each sample and the 3-dimensional data, peak identifier (RT-m/z pair), sample name, and ion intensity were analyzed by principle component analysis (PCA). Partial least-squares-discriminant analysis (PLS-DA), a supervised chemometric procedure, was used to define the maximum classification and separation of independent samples.

[9] = for plasma BUN: groups CP2 and DET10+CP1
Experimental: (§1) Female C57BL/6J mice (National Laboratory Animal Center, Tainan, Taiwan) were given a standard laboratory diet and distilled water ad libitum and kept on a 12-h light/dark cycle at 22±2° C. In total, 63 mice were randomly divided and assigned into 7 groups. Female C57BL/6J mice received an intravenous (i.v) injection with 1×10^5 B16 cells in 200 μL PBS through the tail vein at Day 0. On Day 1, mice were divided into tumor group, CP2 group, DET10 group, DET10+CP1 group, and CP2→DET10 group. The mice were treated intraperitoneally (i.p.) every two days with 2 mg/kg body weight (BW) cisplatin (CP2), 10 mg/kg BW DET (DET10), DET10 mixed with 1 mg/kg BW cisplatin (DET10+CP1), and with CP2 five times and DET10 five times, then CP2 and DET10 taking turns every two days till the end of the experiments (CP2→DET10 group), respectively. The Pre-DET10 group mice were treated i.p with DET (10 mg/kg BW) every two days two weeks before (Day 14) tumor cells inoculation on Day 0, and continuously treated with DET10 till the end of the experiment. The tumor control mice were treated with vehicle DMSO. The mice in the sham control group were injected i.p. with 20 μL DMSO on Day 1 every 2 days throughout the experimental period.
The plasma BUN content, an indication of kidney function, was determined in test animals using QuantiChrom™ Urea Kit (BioAssay Systems).

[10] = Day 21
Experimental: Female C57BL/6J mice (National Laboratory Animal Center, Tainan, Taiwan) were given a standard laboratory diet and distilled water ad libitum and kept on a 12-h light/dark cycle at 22±2° C. In total, 63 mice were randomly divided and assigned into 7 groups. Female C57BL/6J mice received an intravenous (i.v) injection with 1×10^5 B16 cells in 200 μL PBS through the tail vein at Day 0. On Day 1, mice were divided into tumor group, CP2 group, DET10 group, DET10+CP1 group, and CP2→DET10 group. The mice were treated intraperitoneally (i.p.) every two days with 2 mg/kg body weight (BW) cisplatin (CP2), 10 mg/kg BW DET (DET10), DET10 mixed with 1 mg/kg BW cisplatin (DET10+CP1), and with CP2 five times and DET10 five times, then CP2 and DET10 taking turns every two days till the end of the experiments (CP2→DET10 group), respectively. The Pre-DET10 group mice were treated i.p with DET (10 mg/kg BW) every two days two weeks before (Day 14) tumor cells inoculation on Day 0, and continuously treated with DET10 till the end of the experiment. The tumor control mice were treated with vehicle DMSO. The mice in the sham control group were injected i.p. with 20 μL DMSO on Day 1 every 2 days throughout the experimental period. […] On Day 21 post-tumor injection, three mice from each group were euthanized and blood collected for complete blood count (CBC) analysis.
Complete blood samples of test mice in each group on Day 21 were subjected to the analysis of white blood cell (WBC), neutrophil (N), monocyte (M), basophil (B) red blood cell (RBC), platelet (PLT), hemoglobin (Hb), and hematocrit (Ht) and other cell counts with a hemacytometer (FIG. 10).

[11] = Histology, TUNEL and F4/80 immunostaining of kidney tissues
Experimental: as §1
Paraffin-embedded kidney tissues were prepared from three mice in each group on Day 21. The paraffin-embedded kidney was sectioned (4 μm) and underwent H&E staining. In situ apoptotic cells in kidney tissues were determined by TUNEL assay (Chemicon) and the mean proportions of positive TUNEL cells were measured using AxioVision software (Carl Zeiss MicroImaging, Inc.). Immunostaining of macrophage infiltration in the kidney tissues was performed using F4/80 antibody and visualized with goat anti-mouse Cy3-labeled secondary antibodies (Jackson ImmunoResearch), counterstained with DAPI (1 μg/mL).

[12] = test system: Human melanocytes; assay: MTT cell viability assay, normal melanocytes; assay type: cell-based; conditions: 24 h
Experimental: Cell viability was measured by MTT-based colorimetric assay.

[13] = i.p. every two days from Day 1, groups CP2 (cisplatin 2 mg/kg BW), DET10 (DET 10 mg/kg BW), DET10+CP1, CP2→DET10
[14] = i.p. every two days from Day 1, groups CP2, DET10, DET10+CP1, CP2→DET10
[15] = Day 21, groups CP2, DET10, DET10+CP1, CP2→DET10, i.p. every two days from Day 1
[16] = groups CP2, DET10, DET10+CP1, CP2→DET10, compared with control tumor-bearing group
[17] = Pre-DET10 group: DET 10 mg/kg BW i.p. every two days from two weeks before tumor inoculation to end
[18] = pre-DET and DET groups, assignment to group unclear

SMILES: N.N.[Cl][Pt][Cl] [CP, cis-diamminedichloroplatinum(II), reference compound]
- IC50 [1]: 45 µM
- migration velocity of B16 cells [2]: 0.26±0.14 μm/min
- migration distance of B16 cells [2]: 376.6±100 μm
- B16 melanoma cell migration [3]: inhibited
- B16 melanoma cell invasion [3]: inhibited
- sub-G1 (apoptotic) cell fraction [4]: 9%
- mean bioluminescence intensity compared to tumor group (100%) [5, 13]: 2%
- median survival [6, 14]: 43 days
- body weight of test mice [7]: significantly decreased
- decrease in alanine, aspartate, phenylalanine, and tryptophan in kidney tissues, in comparison with the sham control ([8]; CP2 group): 1.7- to 2.4 fold
- increase in pyruvate, citrulline, creatine, uric acid, hippuric acid, and 5-HIAA in kidney tissues, in comparison with the sham control ([8]; CP2 group): 1.6- to 12.5 fold
- increase in 5-HIAA in kidney tissues ([8]; groups CP alone, DET+CP, CP→DET): 8.6 fold
- plasma BUN ([9]; Day 14, sham control 25.4±4.1): 61.1 ± 4.3 mg/dL
- plasma BUN ([9]; Day 21, sham control 25.1±4.1): 67.3 ± 0.1 mg/dL
- neutrophil population, times higher than the sham control ([10]; CP2 group): 3.5 times
- neutrophil population, times higher than the tumor group ([10]; CP2 group): 2.55 times
- effect on the peripheral blood cells profile (haematological toxicity) ([10]; groups CP2 and DET10): severe haematological toxicity
- H&E staining of kidney tissues ([11]; Day 21, CP2 group, cisplatin 2 mg/kg BW i.p. every two days): severe glomerular congestion and tubular epithelial atrophy
- TUNEL-positive (apoptotic) cells in renal tissues [11, 15]: observed mostly
- macrophage/monocyte infiltration in renal tissues (F4/80 immunostaining) [11, 16]: much significant

SMILES: C=C(C)C(=O)O[C@H]1CC2=C[C@@H](C/C(C)=C/[C@H]3OC(=O)C(=C)[C@H]13)OC2=O [DET, deoxyelephantopin]
- IC50 [1]: 4.5 µM
- toxicity on normal human melanocytes [12]: little or no toxicity
- migration velocity of B16 cells [2]: 0.16±0.06 μm/min
- migration distance of B16 cells [2]: 224.1±85.9 μm
- B16 melanoma cell migration [3]: inhibited
- B16 melanoma cell invasion [3]: inhibited
- sub-G1 (apoptotic) cell fraction [4]: 8.5%
- remained bioluminescence intensity relative to tumor control group (100%) [5, 17]: 15%
- remained bioluminescence intensity relative to tumor control group (100%) [5, 13]: 49%
- mean bioluminescence intensity compared to tumor group (100%) [5, 17]: 23%
- mean bioluminescence intensity compared to tumor group (100%) [5, 13]: 45%
- median survival ([6]; Pre-DET10 group: DET 10 mg/kg BW i.p. from two weeks before tumor inoculation): 43 days
- median survival [6, 14]: 39 days
- increase in carnitine in kidney tissues [8, 18]: 2.3 fold
- increase in pyruvate in kidney tissues [8, 18]: 1.6 fold
- increase in taurine in kidney tissues [8, 18]: 2.1 fold
- change of BUN level compared to the sham control group ([9]; DET10 group, DET 10 mg/kg BW i.p. every two days from Day 1): little or no detectable changes
- change of BUN level compared to the sham control group ([9]; Pre-DET10 group, DET 10 mg/kg BW from two weeks before tumor inoculation): little or no detectable changes
- effect on the peripheral blood cells profile (haematological toxicity) ([10]; Pre-DET10 group): did not cause deleterious effect
- effect on the peripheral blood cells profile (haematological toxicity) ([10]; groups CP2 and DET10): did not cause deleterious effect
- levels of neutrophil (N) counts ([10]; groups DET10, DET10+CP1, CP2→DET10): Increase levels
- TUNEL-positive (apoptotic) cells in renal tissues ([11]; Day 21, Pre-DET10 group, DET 10 mg/kg BW from two weeks before tumor inoculation): not detectable
- TUNEL-positive (apoptotic) cells in renal tissues [11, 15]: not detectable
- macrophage/monocyte infiltration in renal tissues (F4/80 immunostaining) ([11]; Pre-DET10 group): little or no detectable inflammatory cell infiltration
- macrophage/monocyte infiltration in renal tissues (F4/80 immunostaining) [11, 16]: little or no detectable inflammatory cell infiltration
